In article PMC6770154, “A Multi-Biochemical and In Silico Study on Anti-Enzymatic Actions of Pyroglutamic Acid against PDE-5, ACE, and Urease Using Various Analytical Techniques: Unexplored Pharmacological Properties and Cytotoxicity Evaluation” (Biomolecules, 2019) one finds IC50 and inhibition data, which are given here for 2 compounds.

In one assay the target is Jack bean urease (JBU) (Canavalia ensiformis, UniProt P07374). As to the kind of experiment: ESI-MS monitoring of urea depletion. Format: biochemical.
Sequence of Jack bean urease (JBU) (P07374 whole entry, looked up): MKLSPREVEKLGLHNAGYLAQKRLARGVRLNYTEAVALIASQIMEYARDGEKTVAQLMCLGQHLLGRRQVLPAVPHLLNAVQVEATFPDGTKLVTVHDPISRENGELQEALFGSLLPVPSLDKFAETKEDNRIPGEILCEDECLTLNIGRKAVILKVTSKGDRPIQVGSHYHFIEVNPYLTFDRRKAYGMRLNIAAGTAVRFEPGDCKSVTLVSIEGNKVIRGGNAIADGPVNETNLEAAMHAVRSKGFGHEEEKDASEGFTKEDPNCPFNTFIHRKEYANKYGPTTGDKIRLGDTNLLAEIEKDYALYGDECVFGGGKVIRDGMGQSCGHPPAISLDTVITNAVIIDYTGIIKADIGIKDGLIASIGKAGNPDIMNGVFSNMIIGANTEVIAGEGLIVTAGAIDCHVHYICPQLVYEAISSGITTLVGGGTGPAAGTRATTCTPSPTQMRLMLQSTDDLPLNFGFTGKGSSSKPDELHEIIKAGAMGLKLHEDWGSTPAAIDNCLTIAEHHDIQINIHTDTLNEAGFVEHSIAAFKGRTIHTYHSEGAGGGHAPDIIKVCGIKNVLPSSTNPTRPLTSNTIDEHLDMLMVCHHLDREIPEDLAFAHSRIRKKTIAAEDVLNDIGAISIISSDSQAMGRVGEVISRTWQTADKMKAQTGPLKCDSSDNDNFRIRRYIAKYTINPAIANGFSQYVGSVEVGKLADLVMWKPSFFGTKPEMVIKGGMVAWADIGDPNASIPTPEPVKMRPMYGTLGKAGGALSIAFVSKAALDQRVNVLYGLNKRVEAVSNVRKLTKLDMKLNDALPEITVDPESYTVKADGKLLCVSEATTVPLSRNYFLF
Assay [1] has as its target human angiotensin-converting enzyme (ACE) (Homo sapiens, UniProt P12821). As to the kind of experiment: spectrophotometric hippuric acid formation, % inhibition at […]. The format is biochemical.
Assay [2] deals with T1, phosphodiesterase-5A1 (PDE5A1) (Homo sapiens, UniProt O76074).
T1 construct: gene PDE5A
The assay can be described thus: biochemical.

Broadly, the IC50 is the concentration at which inhibition is half-maximal. Read a high IC50 as weaker potency in that assay. The inhibition is the share of the control response that was lost under treatment. Low readings indicate a response near the control, high ones a response far below the control.

Sequence of human angiotensin-converting enzyme (ACE) (P12821 30-1306): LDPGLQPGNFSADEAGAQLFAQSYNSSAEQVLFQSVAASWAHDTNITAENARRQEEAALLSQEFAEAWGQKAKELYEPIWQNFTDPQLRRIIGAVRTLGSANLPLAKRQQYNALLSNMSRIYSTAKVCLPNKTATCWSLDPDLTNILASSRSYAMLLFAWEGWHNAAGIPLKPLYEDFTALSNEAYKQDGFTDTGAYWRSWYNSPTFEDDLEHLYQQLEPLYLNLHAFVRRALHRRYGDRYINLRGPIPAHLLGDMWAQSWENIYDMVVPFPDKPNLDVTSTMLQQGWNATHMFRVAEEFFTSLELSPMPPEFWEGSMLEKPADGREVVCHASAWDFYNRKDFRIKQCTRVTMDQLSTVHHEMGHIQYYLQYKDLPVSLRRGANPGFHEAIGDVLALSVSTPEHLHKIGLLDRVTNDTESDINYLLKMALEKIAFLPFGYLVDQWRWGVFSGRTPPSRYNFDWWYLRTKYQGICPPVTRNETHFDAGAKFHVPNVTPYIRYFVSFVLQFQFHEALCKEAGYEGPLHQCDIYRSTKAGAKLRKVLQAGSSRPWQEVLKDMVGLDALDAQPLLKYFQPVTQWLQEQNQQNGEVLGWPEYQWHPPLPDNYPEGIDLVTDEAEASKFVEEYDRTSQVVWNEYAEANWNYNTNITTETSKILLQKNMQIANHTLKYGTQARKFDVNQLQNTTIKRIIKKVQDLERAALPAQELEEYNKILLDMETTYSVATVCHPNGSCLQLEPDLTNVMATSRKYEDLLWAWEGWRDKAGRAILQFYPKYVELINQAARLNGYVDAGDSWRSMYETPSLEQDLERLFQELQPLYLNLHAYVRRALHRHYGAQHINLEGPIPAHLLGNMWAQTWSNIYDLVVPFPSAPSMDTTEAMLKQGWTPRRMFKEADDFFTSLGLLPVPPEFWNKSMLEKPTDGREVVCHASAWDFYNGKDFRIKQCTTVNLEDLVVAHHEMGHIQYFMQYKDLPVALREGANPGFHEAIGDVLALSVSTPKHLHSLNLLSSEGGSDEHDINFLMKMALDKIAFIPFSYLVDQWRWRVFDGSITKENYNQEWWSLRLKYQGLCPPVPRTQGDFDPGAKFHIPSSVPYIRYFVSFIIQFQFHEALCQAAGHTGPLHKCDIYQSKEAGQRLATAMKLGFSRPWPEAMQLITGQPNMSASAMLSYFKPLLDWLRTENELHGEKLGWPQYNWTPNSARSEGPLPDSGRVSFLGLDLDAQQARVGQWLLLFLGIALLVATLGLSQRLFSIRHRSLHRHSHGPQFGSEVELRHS

The compound `CC(=O)NO` [AHA, acetohydroxamic acid, reference compound] returned an IC50 at Jack bean urease (JBU) of 3.9 µM.
Consider `O=C1CC[C@@H](C(=O)O)N1` [pGlu, pyroglutamic acid], for which the figures for the IC50 (at Jack bean urease (JBU); in assay [2]) were 1.8 µM and 5.23 ± 1.33 µM, respectively. The compound also displayed an inhibition at 20 µg/mL in assay [1] of 98.2 ± 1.12%.
